Results as given in patent US10415057B2, “Pseudotyping of retroviral vectors, methods for production and use thereof for targeted gene transfer and high throughput screening” (BUNDESREPUBLIK DEUTSCHLAND, LETZ[…], priority 2006, dated 2019).

Tested on: CD20 positive Raji cells
Assay: Selective transduction and Gancyclovir killing of CD20 positive Raji cells in a Raji/K-562 mixture
Conditions: 10 μM GCV; gfp transduced cells
Experimental: The mutation of the MeV H protein comprises the four point mutations Y481A, R533A, S548L and F549S which ablates productive interactions with CD46 and SLAM, respectively. […] Furthermore, transduced cells can be detected by CD34 expression. In parallel, as a control, the same vector particles having packaged the go gene were applied.
For the generation of the vector particles calcium phosphate transfection was performed. 24 h before transfection, 6.5*10^6 HEK-293T cells were seeded into a T75 flask. 1 h before transfection the medium of the cells was exchanged against 7 ml fresh medium (DMEM with 4.5 g/l glucose, 3.7 g/l NaHCO3, 10% FCS, 1% glutamin). […]
The HmutscFvCD20Δ18/FcΔ30 pseudotyped HIV-1 vector particles either with packaged go gene or with packaged cd34tk39 gene were 1:5 diluted in 300 μl medium (RPMI 1640 with 2 g/l NaHCO3, 10% FCS, 1% glutamine) containing a mixture of 2*10^3 CD20+ Raji and 2*10^3 CD20− K-562 cells. […] Afterwards the percentages of CD20/GFP and CD20/CD34 double positive cells, respectively, were measured by FACS (time point 0 h in FIG. 18). […] At different time points the cells were stained with the respective antibodies and the double positive cells were measured by FACS (Dako Galaxy flow cytometry system; s. FIGS. 18A-18B).

Structure (SMILES): Nc1nc(O)c2ncn(COC(CO)CO)c2n1 [GCV, Gancyclovir]
- Toxic effect of GCV by its own on the cells (CD20/GFP double positive fraction): no toxic effect
